A short description of test [1]: Antioxidant activity assessed as ABTS radical cation scavenging activity by measuring trolox equivalent antioxidant capacity measured at 6 mins. The format is functional.
A short description of test [2]: Antioxidant activity assessed as trolox equivalent of AAPH-induced radical scavenging activity preincubated for 15 mins followed by AAPH addition measured every minute for 120 mins by ORAC-FL based fluorescein assay. The class given is functional.
Test [3] deals with T1, Amine oxidase [flavin-containing] A (Homo sapiens, UniProt P21397).
T1 sequence (P21397 whole entry): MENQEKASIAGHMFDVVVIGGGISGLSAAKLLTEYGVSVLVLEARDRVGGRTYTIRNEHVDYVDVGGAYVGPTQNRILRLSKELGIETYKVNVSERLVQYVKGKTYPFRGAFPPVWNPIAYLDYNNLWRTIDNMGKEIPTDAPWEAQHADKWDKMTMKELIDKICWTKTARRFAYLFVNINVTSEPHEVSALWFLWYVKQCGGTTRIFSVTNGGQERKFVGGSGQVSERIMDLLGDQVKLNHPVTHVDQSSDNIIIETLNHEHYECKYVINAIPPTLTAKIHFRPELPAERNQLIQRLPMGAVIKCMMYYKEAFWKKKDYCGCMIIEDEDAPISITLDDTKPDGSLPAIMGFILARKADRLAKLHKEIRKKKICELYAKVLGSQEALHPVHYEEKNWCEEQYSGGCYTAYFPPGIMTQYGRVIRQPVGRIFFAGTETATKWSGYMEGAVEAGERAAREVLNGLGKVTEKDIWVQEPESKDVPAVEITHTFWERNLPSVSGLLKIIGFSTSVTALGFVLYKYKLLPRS
The test is described as follows: Inhibition of human MAO-A using p-tyramine as substrate incubated for 15 mins followed by substrate addition measured for 20 mins by fluorescence assay.

For test [4], the target named is Acetylcholinesterase (Electrophorus electricus, UniProt O42275). The test is described as follows: Inhibition of electric eel AChE using acetylthiocholine chloride as substrate incubated for 5 mins followed by substrate addition measured after 180 secs by Ellman's method.
Test [5] concerns the target Cholinesterase (Equus caballus) (UniProt P81908). The test is described as follows: Inhibition of equine serum BuChE at 100 uM using butyrylthiocholine iodide as substrate incubated for 5 mins followed by substrate addition measured after 180 secs by Ellman's method relative to control. (In general: Ellman's reagent forms a yellow product with free thiols.)
Test [6] can be described thus: Antioxidant activity assessed as DPPH radical scavenging activity measured after 30 mins incubation in dark by UV-Visible spectrophotometric analysis. The format is functional. On the technique in general: The DPPH test is a chemical assay of radical scavenging.
In test [7] the target is T2, Cholinesterase (Homo sapiens, UniProt P06276). The test is described as follows: Inhibition of human serum BuChE using butyrylthiocholine iodide as substrate incubated for 5 mins followed by substrate addition measured after 180 secs by Ellman's method.
Test [8] deals with T3, Acetylcholinesterase (Homo sapiens, UniProt P22303). The test is described as follows: Inhibition of human erythrocyte AChE using acetylthiocholine chloride as substrate incubated for 5 mins followed by substrate addition measured after 180 secs by Ellman's method.
In test [9] the target is T4, Amine oxidase [flavin-containing] B (Homo sapiens, UniProt P27338).
T4 sequence (P27338 whole entry): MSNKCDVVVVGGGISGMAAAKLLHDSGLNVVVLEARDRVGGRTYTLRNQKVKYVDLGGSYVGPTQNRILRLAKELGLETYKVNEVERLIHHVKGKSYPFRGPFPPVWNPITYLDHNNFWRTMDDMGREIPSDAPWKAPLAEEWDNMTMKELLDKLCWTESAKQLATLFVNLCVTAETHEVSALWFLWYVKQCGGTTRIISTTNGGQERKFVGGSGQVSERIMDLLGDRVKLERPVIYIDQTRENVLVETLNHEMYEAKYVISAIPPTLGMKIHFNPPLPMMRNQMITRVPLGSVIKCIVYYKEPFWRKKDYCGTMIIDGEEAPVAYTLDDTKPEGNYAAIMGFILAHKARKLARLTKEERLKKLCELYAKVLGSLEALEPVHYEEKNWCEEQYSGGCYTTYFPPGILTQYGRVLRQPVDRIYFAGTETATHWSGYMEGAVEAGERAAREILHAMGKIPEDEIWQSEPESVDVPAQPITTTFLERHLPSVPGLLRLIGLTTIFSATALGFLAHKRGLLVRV
The test is described as follows: Inhibition of human MAO-B using p-tyramine as substrate incubated for 15 mins followed by substrate addition measured for 20 mins by fluorescence assay.

The target in test [10] is T2, Cholinesterase. The test is described as follows: Inhibition of human serum BuChE at 100 uM using butyrylthiocholine iodide as substrate incubated for 5 mins followed by substrate addition measured after 180 secs by Ellman's method relative to control.
A further test is filed under the species Homo sapiens. The test is described as follows: Selectivity index, ratio of IC50 for human serum BuChE to IC50 for human erythrocyte AChE.
Test [11] addresses Acetylcholinesterase (Electrophorus electricus) (UniProt O42275). The test is described as follows: Inhibition of electric eel AChE at 100 uM using acetylthiocholine chloride as substrate incubated for 5 mins followed by substrate addition measured after 180 secs by Ellman's method relative to control.
The target in test [12] is T3, Acetylcholinesterase. The test is described as follows: Inhibition of human erythrocyte AChE at 100 uM using acetylthiocholine chloride as substrate incubated for 5 mins followed by substrate addition measured after 180 secs by Ellman's method relative to control.

The record followed here is ChEMBL document CHEMBL4270597, “Donepezil-butylated hydroxytoluene (BHT) hybrids as Anti-Alzheimer's disease agents with cholinergic, antioxidant, and neuroprotective properties” (Eur J Med Chem, 2018).

The structures appear in SMILES notation.

T2 sequence (P06276 whole entry): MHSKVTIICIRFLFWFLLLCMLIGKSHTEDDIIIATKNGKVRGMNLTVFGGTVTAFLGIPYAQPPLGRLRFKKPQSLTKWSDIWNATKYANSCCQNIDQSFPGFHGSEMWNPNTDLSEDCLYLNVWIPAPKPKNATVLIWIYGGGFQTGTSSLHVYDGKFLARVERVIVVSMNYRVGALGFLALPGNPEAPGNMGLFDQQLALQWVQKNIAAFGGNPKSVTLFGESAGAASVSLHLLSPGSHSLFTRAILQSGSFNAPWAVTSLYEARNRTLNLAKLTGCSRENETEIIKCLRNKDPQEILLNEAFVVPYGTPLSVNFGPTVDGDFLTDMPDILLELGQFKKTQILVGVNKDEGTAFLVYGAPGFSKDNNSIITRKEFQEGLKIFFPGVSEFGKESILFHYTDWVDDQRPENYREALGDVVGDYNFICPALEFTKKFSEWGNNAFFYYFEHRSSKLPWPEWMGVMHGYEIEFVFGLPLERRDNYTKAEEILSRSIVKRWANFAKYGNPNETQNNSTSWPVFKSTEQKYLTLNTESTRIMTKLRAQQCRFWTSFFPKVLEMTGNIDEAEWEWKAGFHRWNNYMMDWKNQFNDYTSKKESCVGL
T3 sequence (P22303 whole entry): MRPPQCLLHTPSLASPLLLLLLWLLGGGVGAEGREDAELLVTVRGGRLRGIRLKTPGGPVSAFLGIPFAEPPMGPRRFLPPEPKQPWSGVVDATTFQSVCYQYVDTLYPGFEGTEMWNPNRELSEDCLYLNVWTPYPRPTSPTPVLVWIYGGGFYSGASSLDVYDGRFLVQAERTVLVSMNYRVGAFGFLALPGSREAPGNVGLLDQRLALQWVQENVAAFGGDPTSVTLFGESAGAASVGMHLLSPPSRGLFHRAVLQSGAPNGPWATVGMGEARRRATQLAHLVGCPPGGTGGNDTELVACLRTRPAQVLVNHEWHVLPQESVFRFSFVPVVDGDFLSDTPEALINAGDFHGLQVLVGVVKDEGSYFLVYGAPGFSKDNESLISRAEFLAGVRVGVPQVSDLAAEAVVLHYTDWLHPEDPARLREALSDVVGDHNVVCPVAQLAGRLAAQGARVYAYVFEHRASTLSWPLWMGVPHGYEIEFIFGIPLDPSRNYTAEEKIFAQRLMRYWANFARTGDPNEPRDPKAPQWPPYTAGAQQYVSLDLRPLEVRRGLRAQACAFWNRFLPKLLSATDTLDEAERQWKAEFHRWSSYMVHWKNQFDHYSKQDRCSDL
Chain of Acetylcholinesterase (Electrophorus electricus, UniProt O42275) (O42275 whole entry): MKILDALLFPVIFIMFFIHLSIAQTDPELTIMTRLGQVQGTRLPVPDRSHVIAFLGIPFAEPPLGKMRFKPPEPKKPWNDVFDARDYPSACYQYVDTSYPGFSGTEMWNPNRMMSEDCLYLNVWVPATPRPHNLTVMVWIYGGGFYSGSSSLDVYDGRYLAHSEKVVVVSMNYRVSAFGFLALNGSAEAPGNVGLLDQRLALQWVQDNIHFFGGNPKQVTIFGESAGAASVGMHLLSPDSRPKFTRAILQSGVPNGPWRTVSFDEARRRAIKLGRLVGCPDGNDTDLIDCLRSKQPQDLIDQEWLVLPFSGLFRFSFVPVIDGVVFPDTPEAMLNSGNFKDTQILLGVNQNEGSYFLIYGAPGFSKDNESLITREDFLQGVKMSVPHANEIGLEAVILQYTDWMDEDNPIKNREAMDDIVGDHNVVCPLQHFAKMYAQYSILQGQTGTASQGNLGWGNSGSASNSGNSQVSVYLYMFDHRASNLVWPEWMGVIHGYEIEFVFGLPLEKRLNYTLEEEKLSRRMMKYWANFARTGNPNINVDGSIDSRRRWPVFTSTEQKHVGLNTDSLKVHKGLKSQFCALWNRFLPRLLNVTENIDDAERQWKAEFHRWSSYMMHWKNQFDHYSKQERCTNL
Chain of Cholinesterase (Equus caballus) (P81908 whole entry): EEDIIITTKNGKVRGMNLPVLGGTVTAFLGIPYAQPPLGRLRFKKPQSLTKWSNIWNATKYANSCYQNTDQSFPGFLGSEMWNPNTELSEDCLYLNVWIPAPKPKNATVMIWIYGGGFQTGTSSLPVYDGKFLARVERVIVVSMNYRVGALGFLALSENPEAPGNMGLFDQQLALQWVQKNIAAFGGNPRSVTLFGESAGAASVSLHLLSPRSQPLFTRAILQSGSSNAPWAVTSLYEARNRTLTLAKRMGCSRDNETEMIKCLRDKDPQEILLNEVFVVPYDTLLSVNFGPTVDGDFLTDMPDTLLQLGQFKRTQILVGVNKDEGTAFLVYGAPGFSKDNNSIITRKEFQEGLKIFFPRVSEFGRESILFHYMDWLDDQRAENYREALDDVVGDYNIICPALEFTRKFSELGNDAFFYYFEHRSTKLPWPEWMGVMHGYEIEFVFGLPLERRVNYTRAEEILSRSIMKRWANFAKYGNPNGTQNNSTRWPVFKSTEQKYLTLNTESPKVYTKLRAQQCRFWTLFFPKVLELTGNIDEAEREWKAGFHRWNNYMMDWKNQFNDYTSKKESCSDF
Chain of Acetylcholinesterase (Electrophorus electricus) (O42275 24-633 limits assumed): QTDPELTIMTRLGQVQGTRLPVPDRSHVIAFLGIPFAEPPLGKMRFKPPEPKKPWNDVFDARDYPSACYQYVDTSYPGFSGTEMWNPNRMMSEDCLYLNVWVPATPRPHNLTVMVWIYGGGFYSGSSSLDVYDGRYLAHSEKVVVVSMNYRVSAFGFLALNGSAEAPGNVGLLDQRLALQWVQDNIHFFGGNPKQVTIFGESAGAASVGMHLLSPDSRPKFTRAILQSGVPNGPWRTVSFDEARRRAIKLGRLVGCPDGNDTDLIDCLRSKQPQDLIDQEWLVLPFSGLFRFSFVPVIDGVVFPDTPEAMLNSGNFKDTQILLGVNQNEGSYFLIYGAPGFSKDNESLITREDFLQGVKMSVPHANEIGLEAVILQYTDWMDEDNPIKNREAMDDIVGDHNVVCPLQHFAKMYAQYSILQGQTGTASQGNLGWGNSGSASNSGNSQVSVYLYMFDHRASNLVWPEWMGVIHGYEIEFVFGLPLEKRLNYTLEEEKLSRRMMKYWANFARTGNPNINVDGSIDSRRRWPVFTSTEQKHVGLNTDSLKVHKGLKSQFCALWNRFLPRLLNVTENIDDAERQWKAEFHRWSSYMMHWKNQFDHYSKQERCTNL

One may read the IC50 as the midpoint of a concentration-inhibition curve. For orientation: inhibition means how much of the control response was suppressed. A higher inhibition goes with a strong effect. As for `CC(C)(C)c1cc(/C=C/C(=O)NCCC2CCN(Cc3ccc(Br)cc3)CC2)cc(C(C)(C)C)c1O`, the values for the Activity (mmolequiv/mmol) in [1] and in test [2] were 0.77 and 1.59, respectively. The IC50 in test [3] was 73.2 µM; against Acetylcholinesterase [4] it was 1.32 µM; in test [6], 85.6 µM; against Cholinesterase [7] it was “Not Active”; at Acetylcholinesterase [8] it was 3.81 µM; in test [9], 13.2 µM. The molecule also gave an inhibition in test [5] of 38.9%.

`Cc1ccc(CN2CCC(CCNC(=O)/C=C/c3cc(C(C)(C)C)c(O)c(C(C)(C)C)c3)CC2)cc1`: the Activity (mmolequiv/mmol) in test [1] was 0.89; in [2], 1.57. Further, the IC50 is 70.1 µM in test [3]; 0.72 µM against Acetylcholinesterase [4]; 60.4 µM in test [6]; “Not Active” against Cholinesterase [7]; 2.01 µM against Acetylcholinesterase [8]; 8.9 µM in test [9]. In addition, in test [5], the inhibition stood at 41.4%.

As to `CC(C)(C)c1cc(/C=C/C(=O)NCCC2CCN(Cc3ccc(F)cc3)CC2)cc(C(C)(C)C)c1O`, the Activity (mmolequiv/mmol) worked out at 0.88 in [1] and 1.51 in [2]. In addition, the IC50 in [3] is 59.6 µM; on Acetylcholinesterase [4] it was 0.32 µM; in test [6], 57.5 µM; against Cholinesterase [7], “Not Active”; against Acetylcholinesterase [8], 0.98 µM; in test [9] it was 11.1 µM. In [5], the inhibition came to 40.2%.

As to `CC(C)(C)c1cc(CCC(=O)NCCC2CCN(Cc3ccccc3)CC2)cc(C(C)(C)C)c1O`, the Activity (mmolequiv/mmol) in test [1] was found to be 0.69; in test [2], 1.33. Also, the IC50 was found to be 94.1 µM in test [3]; 2.31 µM against Acetylcholinesterase [4]; 54.5 µM in [6]; 3.42 µM against Acetylcholinesterase [8]; 46.9 µM in test [9]. For the same molecule, the inhibition in test [5] stood at 42.4%; against Cholinesterase [10] it was 36.5%. In addition, the Ratio IC50 in the test filed under Homo sapiens was greater than 33.

As to `Cc1ccccc1CN1CCC(CCNC(=O)/C=C/c2cc(C(C)(C)C)c(O)c(C(C)(C)C)c2)CC1`, the Activity (mmolequiv/mmol) worked out at 0.75 in test [1] and 1.61 in test [2]. For the same molecule, the IC50 in test [3] is 69.3 µM; against Acetylcholinesterase [4] it was 0.87 µM; in [6], 65.3 µM; at Acetylcholinesterase [8], 2.51 µM; in [9], 7.2 µM. In addition, the figures for the inhibition (in test [5]; at Cholinesterase [10]) were 55.9% and 30.2%, respectively. Moreover, the Ratio IC50 in the test listed under Homo sapiens is greater than 40.

Consider `CC(C)(C)c1cc(/C=C/C(=O)NCCC2CCN(Cc3cccc(Cl)c3)CC2)cc(C(C)(C)C)c1O`, for which the Activity (mmolequiv/mmol) amounted to 0.74 in test [1] and 1.55 in [2]. Besides, the IC50 in [3] is 65.1 µM; against Acetylcholinesterase [4], 0.74 µM; in test [6], 83.1 µM; against Cholinesterase [7], “Not Active”; against Acetylcholinesterase [8] it was 2.54 µM; in [9], 8.7 µM. The inhibition in [5] was 41.5%.

Take `CC(C)(C)c1cc(/C=C/C(=O)NC2CCN(Cc3ccccc3)CC2)cc(C(C)(C)C)c1O`: the values for the Activity (mmolequiv/mmol) in test [1] and in test [2] were 0.94 and 1.42, respectively. Besides, the inhibition is 34.3% in test [11], 31.5% in test [5], 27.7% against Acetylcholinesterase [12] and 9.41% on Cholinesterase [10]. In addition, the IC50 was 42.5 µM in [3], 71.9 µM in test [6] and 33.5 µM in [9].

For the molecule `CC(C)(C)c1cc(/C=C/C(=O)NCCC2CCN(Cc3ccc(F)cc3F)CC2)cc(C(C)(C)C)c1O`, the Activity (mmolequiv/mmol) in test [1] was found to be 0.91; in test [2], 1.54. Besides, the IC50 in test [3] was 70.6 µM; against Acetylcholinesterase [4], 0.56 µM; in [6], 62.4 µM; on Cholinesterase [7], “Not Active”; against Acetylcholinesterase [8], 1.78 µM; in test [9] it was 12.5 µM. In [5], the inhibition was determined as 31.2%.

Consider `CC(C)(C)c1cc(/C=C/C(=O)NCC2CCN(Cc3ccccc3)CC2)cc(C(C)(C)C)c1O`, for which the Activity (mmolequiv/mmol) amounted to 0.86 in test [1] and 1.31 in [2]. The inhibition was 29.1% in [11], 16.6% in test [5], 28.1% on Acetylcholinesterase [12] and 21.7% against Cholinesterase [10]. The IC50 turned out to be 48.4 µM in [3], 75.6 µM in [6] and 11.7 µM in [9].

With `CC(C)(C)c1cc(/C=C/C(=O)NCCC2CCN(Cc3cccc([N+](=O)[O-])c3)CC2)cc(C(C)(C)C)c1O`, the Activity (mmolequiv/mmol) was determined as 0.85 in [1] and 1.6 in test [2]. Further, the IC50 in test [3] is 70.9 µM; at Acetylcholinesterase [4], 1.21 µM; in test [6], 78.1 µM; on Cholinesterase [7], “Not Active”; on Acetylcholinesterase [8], 3.46 µM; in [9], 12.5 µM. This molecule also registered an inhibition in test [5] of 42.6%.

On to `CC(C)(C)c1cc(/C=C/C(=O)NCCC2CCN(Cc3ccccc3Cl)CC2)cc(C(C)(C)C)c1O`, for which the Activity (mmolequiv/mmol) in [1] was 0.64; in test [2], 1.6. Further, the IC50 in test [3] was 72.1 µM; at Acetylcholinesterase [4], 0.59 µM; in test [6], 80.2 µM; on Cholinesterase [7], “Not Active”; at Acetylcholinesterase [8] it was 2.44 µM; in test [9], 9.8 µM. Moreover, in test [5], the inhibition was 35.5%.

For `CC(C)(C)c1cc(/C=C/C(=O)NCCC2CCN(Cc3cccc(F)c3)CC2)cc(C(C)(C)C)c1O`, the Activity (mmolequiv/mmol) is 0.78 in test [1] and 1.59 in test [2]. Moreover, the concentration for half-maximal inhibition (IC50) is 58.4 µM in [3]; 0.68 µM against Acetylcholinesterase [4]; 55.2 µM in test [6]; “Not Active” at Cholinesterase [7]; 1.33 µM at Acetylcholinesterase [8]; 6.5 µM in [9]. The molecule further showed an inhibition in test [5] of 37.9%.

On to `CC(C)(C)c1cc(/C=C/C(=O)NCCC2CCN(Cc3ccc(C#N)cc3)CC2)cc(C(C)(C)C)c1O`, for which the Activity (mmolequiv/mmol) in test [1] worked out at 0.84; in [2] it was 1.62. In addition, the IC50 came to 78.2 µM in test [3]; 0.77 µM at Acetylcholinesterase [4]; 79.5 µM in test [6]; 2.78 µM against Acetylcholinesterase [8]; 13.9 µM in test [9]. Further, the inhibition amounted to 48.1% in [5] and 41.2% at Cholinesterase [10]. In addition, the Ratio IC50 in the test filed under Homo sapiens is greater than 36.

In the case of `CC(C)(C)c1cc(/C=C/C(=O)NCCC2CCN(Cc3ccc(F)c(F)c3)CC2)cc(C(C)(C)C)c1O`, the figures for the Activity (mmolequiv/mmol) in test [1] and in test [2] were 0.79 and 1.57, respectively. Besides, the half-maximal inhibitory concentration (IC50) in [3] was 64.5 µM; against Acetylcholinesterase [4], 0.42 µM; in test [6], 65.7 µM; against Cholinesterase [7] it was “Not Active”; against Acetylcholinesterase [8], 1.62 µM; in [9], 9.3 µM. Also, the inhibition in [5] was 39.9%.

In the case of `COc1ccc(CN2CCC(CCNC(=O)/C=C/c3cc(C(C)(C)C)c(O)c(C(C)(C)C)c3)CC2)cc1`, the Activity (mmolequiv/mmol) in [1] was 0.82; in [2] it was 1.66. Moreover, the IC50 in test [3] was 72.5 µM; at Acetylcholinesterase [4], 0.85 µM; in test [6] it was 61.2 µM; against Cholinesterase [7] it was “Not Active”; at Acetylcholinesterase [8], 2.12 µM; in test [9] it was 6.7 µM. Moreover, the inhibition in test [5] is 43.6%.
